Residues, ends and D or L forms follow the SMILES beside them. *: point of attachment. Palmitoyl = CCCCCCCCCCCCCCCC(=O)*
Key:
[1] = Evaluation of solubility of N-palmitoyl-Gly-His with each additive (heating and stirring at 80° C., open system, visual inspection); assay type: physicochemical; details: 0.05% or greater acetic acid, sodium acetate or phosphoric acid, 0.1% disodium hydrogen phosphate or trisodium citrate, 0.5% citric, succinic, tartaric, lactic acid or their sodium salts, 1.0% trimellitic acid or trisodium trimellitate
Procedure: Next, heating and stirring were performed, with a cap of the screw bottle being open (that is, an open system), in a water bath (NWB-180N, manufactured by Nissinrika K. K.) for 60 minutes at a maximum until a transparent dispersion state was confirmed at 80° C. […] Next, heating and stirring were performed, with a cap of the screw bottle being open, in a water bath (NWB-180N, manufactured by Nissinrika K. K.) for 60 minutes at 80° C.
Next, heating and stirring were performed, with a cap of the screw bottle being open, in a water bath (NWB-180N, manufactured by Nissinrika K. K.) for 60 minutes at a maximum until a transparent dispersion state was confirmed at 80° C.

[2] = Evaluation of hydrogelation ability (overnight cooling at room temperature, inversion of the bottle); assay type: physicochemical; details: same additive amounts as; after stirring at 80° C. in an open system
From the text: Next, the solution was allowed to cool at room temperature overnight.

In the case of `CCCCCCCCCCCCCCCC(=O)NCC(=O)N[C@@H](Cc1c[nH]cn1)C(=O)O` [N-palmitoyl-Gly-His] (Palmitoyl-Gly-His-OH), the “dissolution in water (summary of Examples 1 to 14, in words)” value [1] is reported as “could be easily dissolved in water” and the “hydrogel formation (summary of Examples 1 to 14, in words)” value [2] is reported as “a hydrogel could be obtained”.

Reference: US9328137B2, “Hydrogel-forming material” (NISSAN CHEMICAL INDUSTRIES, LTD., priority 2011, dated 2016)
